Test results: patent US10858364B2, “Imidazopyrazine inhibitors of Bruton's tyrosine kinase” (Acerta Pharma B.V., priority 2016, dated 2020)

Columns and labels:
Format in all cases: biochemical
[1] = target: ITK (Homo sapiens (Human), UniProt Q08881); test: ITK enzyme activity, IMAP assay; settings: 60 min pre-incubation, 5 μM ATP
Method: ITK enzyme activity is measured using the IMAP (immobilized metal ion affinity-based fluorescence polarization) assay as outlined below.
ITK enzyme (Millipore #14-660M) is diluted to 0.2 U/mL in KR buffer (10 mM Tris-HCl, 10 mM MgCl2, 0.01% Tween-20, 0.1% NaN3, 1 mM DTT, 2 mM MnCl2, pH 7.5)
Serial dilutions log 10 from 2 mM to 63.2 nM of test compounds are made in 100% DMSO. The dilutions in DMSO are then diluted 50-fold in KR-buffer. Final compound concentration range in the assay ranged from 10 μM to 0.316 nM.
The assay is performed as follows: 5 μL/well of test compound in KR buffer (final DMSO concentration in the assay is 1%) is mixed with 5 μL/well of 0.2 U/mL ITK enzyme (final concentration in the assay is 0.05 U/mL (8.4 nM)). Test compounds and ITK enzyme are pre-incubated 60 minutes at room temperature, before adding 5 μL/well of 200 nM Fluorescin labeled substrate peptide (Blk/Lyntide substrate # R8124, Molecular Devices) in KR-buffer. Final peptide substrate concentration in assay is 50 nM. The kinase assay is started by adding 5 μL/well of 20 μM ATP in KR-buffer (final ATP concentration is 5 μM ATP, Km ATP in ITK IMAP assay). […] IC50 values are determined by curve fitting of the experimental results in Dotmatics.

[2] = target: TXK (Homo sapiens (Human), UniProt P42681); test: TXK Z'-LYTE kinase assay; settings: 1 h pre-incubation, Km ATP
Method: BMX, TXK, EGFR, ERBB2, ERBB4, JAK3, BLK kinase activity was measured using the Z′-LYTE assay at Thermo Fisher. A 10-point dose response (final concentration in assay ranged from 10 μM to 0.5 nM in 3-fold dilution per dilution step) was generated with 1 h incubation of the test compound with the kinase prior to initiation of the kinase reaction by the addition of ATP. ATP concentration in the assay was Km ATP for the different kinases. IC50 values are determined by curve fitting of the experimental results at Thermo Fisher.

[3] = target: BTK (Homo sapiens (Human), UniProt Q06187); test: BTK enzyme activity, IMAP assay; settings: 60 min pre-incubation, 5 μM ATP
Method: BTK enzyme activity is measured using the IMAP (immobilized metal ion affinity-based fluorescence polarization) assay as outlined below. BTK enzyme (His-BTK (Millipore catalog #14-552)), is diluted to 0.4 U/mL in KR buffer (10 mM Tris-HCl, 10 mM MgCl2, 0.01% Tween-20, 0.05% NaN3, 1 mM DTT, 2 mM MnCl2, pH 7.2). Serial dilutions log 10 from 2 mM to 63.2 nM of test compounds are made in 100% DMSO. The dilutions in DMSO are then diluted 50-fold in KR-buffer. Final compound concentration range in the assay ranged from 10 μM to 0.316 nM. The assay is performed as follows: 5 μL/well of test compound in KR buffer (final DMSO concentration in the assay is […]) is mixed with 5 µl/well of 0.4 U/mL BTK enzyme (final concentration in the assay is 0.1 U/mL). […] After 60 min incubation at room temperature in the dark the FP signal is read. Fluorescence at 535 nm is measured using parallel and perpendicular filters to determine differences in rotation due to binding of the phosphorylated substrate peptide to the beads. Values are calculated as percentage of the difference in readout (AmPi) of the controls with and without ATP. IC50 values are determined by curve fitting of the experimental results in Dotmatics.

Sequence of TXK (P42681 whole entry): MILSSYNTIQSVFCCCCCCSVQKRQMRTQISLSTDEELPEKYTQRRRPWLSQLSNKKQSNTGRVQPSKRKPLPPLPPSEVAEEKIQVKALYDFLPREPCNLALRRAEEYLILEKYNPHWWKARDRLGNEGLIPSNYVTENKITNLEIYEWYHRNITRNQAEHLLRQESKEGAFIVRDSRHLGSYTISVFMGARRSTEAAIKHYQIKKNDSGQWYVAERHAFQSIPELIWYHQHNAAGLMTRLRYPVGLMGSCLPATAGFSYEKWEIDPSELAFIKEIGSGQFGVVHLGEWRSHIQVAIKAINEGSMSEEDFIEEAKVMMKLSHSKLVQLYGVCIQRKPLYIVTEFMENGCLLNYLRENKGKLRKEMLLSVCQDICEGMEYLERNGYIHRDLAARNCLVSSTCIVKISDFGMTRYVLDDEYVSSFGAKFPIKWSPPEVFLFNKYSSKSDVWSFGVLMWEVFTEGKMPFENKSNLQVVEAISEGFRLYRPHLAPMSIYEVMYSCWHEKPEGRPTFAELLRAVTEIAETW
Sequence of ITK (Q08881 whole entry): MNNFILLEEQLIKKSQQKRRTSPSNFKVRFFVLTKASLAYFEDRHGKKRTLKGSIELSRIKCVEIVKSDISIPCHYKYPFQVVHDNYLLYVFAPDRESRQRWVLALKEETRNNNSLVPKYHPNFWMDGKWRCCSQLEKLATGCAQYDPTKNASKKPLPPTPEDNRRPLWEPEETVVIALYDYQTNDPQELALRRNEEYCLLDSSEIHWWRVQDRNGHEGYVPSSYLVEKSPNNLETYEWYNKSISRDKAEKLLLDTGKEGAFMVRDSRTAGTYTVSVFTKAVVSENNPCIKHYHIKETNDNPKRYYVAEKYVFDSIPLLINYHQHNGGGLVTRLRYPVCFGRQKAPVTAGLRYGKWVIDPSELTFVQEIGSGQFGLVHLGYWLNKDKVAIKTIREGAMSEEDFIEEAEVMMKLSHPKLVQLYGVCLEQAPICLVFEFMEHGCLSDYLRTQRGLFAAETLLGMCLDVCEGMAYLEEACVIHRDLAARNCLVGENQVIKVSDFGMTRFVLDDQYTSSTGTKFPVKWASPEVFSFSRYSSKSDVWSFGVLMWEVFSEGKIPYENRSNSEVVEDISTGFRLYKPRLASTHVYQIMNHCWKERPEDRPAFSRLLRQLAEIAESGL
Sequence of BTK (Q06187 whole entry): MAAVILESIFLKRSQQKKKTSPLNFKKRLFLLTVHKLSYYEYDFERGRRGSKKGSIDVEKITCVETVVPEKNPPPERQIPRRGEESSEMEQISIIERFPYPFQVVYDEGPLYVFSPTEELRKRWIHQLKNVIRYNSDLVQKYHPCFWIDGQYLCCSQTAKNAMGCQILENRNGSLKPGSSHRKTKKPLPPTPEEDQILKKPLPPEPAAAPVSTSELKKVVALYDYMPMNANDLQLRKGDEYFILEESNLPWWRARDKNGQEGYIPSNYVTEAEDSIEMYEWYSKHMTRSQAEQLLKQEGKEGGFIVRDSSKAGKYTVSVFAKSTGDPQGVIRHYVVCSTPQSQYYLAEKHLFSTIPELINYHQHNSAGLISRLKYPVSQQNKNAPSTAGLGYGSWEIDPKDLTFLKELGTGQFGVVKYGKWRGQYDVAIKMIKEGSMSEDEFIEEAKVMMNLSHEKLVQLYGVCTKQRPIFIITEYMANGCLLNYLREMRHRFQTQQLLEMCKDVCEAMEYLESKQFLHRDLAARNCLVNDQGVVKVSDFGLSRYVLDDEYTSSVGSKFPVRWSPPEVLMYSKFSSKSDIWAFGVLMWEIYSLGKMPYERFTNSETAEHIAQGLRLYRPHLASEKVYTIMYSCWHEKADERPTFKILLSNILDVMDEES

Row | SMILES | IC50 [1] [µM] | IC50 [2] [µM] | IC50 [3] [µM]
1 | CC#CC(=O)NCCCC(=O)c1nc(-c2ccc(C(=O)Nc3ccccn3)c(OC)c2)c2c(N)nccn12 [Formula (II), 4-(8-amino-3-(4-(but-2-ynamido)butanoyl)imidazo[1,5-a]pyrazin-1-yl)-2-methoxy-N-(pyridin-2-yl)benzamide] | > 10 | 0.059 | 0.0093
2 | CC#CC(=O)NCCCC(=O)c1nc(-c2ccc(C(=O)Nc3ccccn3)cc2)c2c(N)nccn12 [Formula (I), 4-(8-amino-3-(4-(but-2-ynamido)butanoyl)imidazo[1,5-a]pyrazin-1-yl)-N-(pyridin-2-yl)benzamide] | > 10 | 0.567 ± 0.174 | 0.005 ± 0.001
